# Laboratory results as given in publication PMC4136845, “Evaluation of Antimalarial Activity and Toxicity of a New Primaquine Prodrug” (PLoS ONE, 2014).
# Values joined by “and” are separate entries in the source; they are usually repeats but may differ in a detail not shown here. Equal values may be shown once. “Also recorded” adds a separate entry of the source. Marks after values point to notes of the source that are not given here.
# Assays:
# in vitro = details: human
# Protocol: (§4) The hemolytic rate was calculated using 0.05% saponin as the positive control for hemolysis of human RBC, which was considered 100% [24], [25]. The diagnosis of G6PD deficiency was performed using a technique based on the principle that hemoglobin oxidized to methemoglobin, by the action of sodium nitrite, is catalyzed by an enzyme, in the presence of methylene blue [26]. […] All participants signed a written informed consent before blood collection. The consent was approved by the Ethics Committee of CEPEM.
# male Wistar rats [1] = assay: Biochemical analysis of serum of rats treated with multiple doses; details: rat serum, gavage four times a day for 4 days, PQ diphosphate 2.44 mg/kg free base, Phe-Ala-PQ 9.00 mg/kg, mean
# Protocol: (§1) The biochemical, hematological and histopathological analyses were carried out in male Wistar rats (weighing 200–250 g). They were housed in wire cages, five animals per cage, with free access to food and water. The study protocol was approved by The Research Ethics Committee of the School of Pharmaceutical Sciences, UNESP, Araraquara (process 06/2009). […] After treatment with the drugs, the animals were decapitated for collection of blood and samples of liver and kidneys (preserved in 10% formaldehyde).
# (§2) In biochemical analysis, aspartate aminotransferase (AST), alanine aminotransferase (ALT), gamma-glutamyltransferase (GGT), bilirubin, creatinine and urea kits were purchased from LabTest Diagnostica SA (Lagoa Santa,Minas Gerais, Brazil). Alkaline phosphatase (ALP) was assayed by the conversion of p-nitrophenyl phosphate to p-nitrophenol in a kinetic reaction, measured with a spectrophotometer at 405 nm. To determine the level of methemoglobin in relation to oxyhemoglobin, we used the method described by Naoum and collaborators. The blood was hemolyzed and the hemoglobin stabilized in 60 mM phosphate buffer, pH 6.8. The levels of methemoglobin and oxyhemoglobin were determined by spectrophotometric absorption at 630 and 540 nm. The total and differential white blood cell (WBC) counts were performed using a Neubauer chamber and blood smears, respectively. The hematocrit was determined using conventional method by microcapillary centrifugation.
# In vitro hemolysis assay = details: human
# Protocol: as §4
# P. gallinaceum = assay: Inhibition of P. gallinaceum sporogony in Aedes fluviatilis mosquitoes fed on infected, treated chickens; format: in vivo; details: for Mean oocyts ±SD/ in times 4 h: chicken, mosquitoes fed 4 h after treatment; for Reduction in oocyst number, % / Sporogony inhibition, %: 4 h vs 0 h
# Protocol: One-week-old chicks (Gallus gallus domesticus) previously inoculated with 10^6 RBC infected with P. gallinaceum, had their parasitemia monitoried daily, by examining Giemsa-stained thin blood smears; they were used to feed the mosquitoes when reaching 2.8 – 3.8%. The A. fluviatilis mosquitoes were kept for 24 h without sugar in their diet, to improve their ability to take the blood meal from chickens. For each compound the same infected chicken was offered twice to feed clean mosquitoes (30 female mosquitoes per group), before treatment, (group 0 h). Drug treatment was immediately performed by gavage and the treated chicken was offered again to blood-feed another group of mosquitoes (test group) 4 h after treatment of the chicken with the drug. […] In each experiment, another non-treated P. gallinaceum-infected chick was used twice (time 0 h and 4 h later) to feed clean mosquitoes, serving as an internal control.
# Seven days after the blood meal, the mosquitoes were dissected and their midgut was removed under a stereomicroscope (100x), stained with 0.5% mercurochrome, and examined under a light microscope (40x) for the oocyst count. […] Two criteria were used to evaluate drug activity: the total number of infected mosquitoes and the mean number of oocysts, based on the examination of 20 mosquitoes in each group.
# [2] = test system: human hepatoma cell line (HepG2); assay: In vitro cytotoxicity, MTT assay, HepG2 cells; details: for MDL50 (Mean±SD) HepG2: 24 h incubation
# Protocol: (§3) The HepG2 (ATCC HB-8065) was originally received from the New University of Lisbon, Portugal, and BGM received as a gift from the Federal University of Minas Gerais and originally purchased from Rio de Janeiro Cell Bank (BCRJ 0049). When confluent, the cells were washed with RPMI culture medium, then trypsinized, distributed in a flat-bottom 96-well plate (5×10^3 cells/well), and incubated for 18 h at 37°C for cell adherence as described elsewhere. The compound (20 µL) was added to each well at various concentrations (1-1000 µg/mL) and the plate incubated for 24 h in a 5% CO2 atmosphere at 37°C. MTT [3-(4,5-dimethylthiazol-2-yl)-2,5-diphenyltetrazolium bromide] (5 mg/mL; 20 µL/well) was added to evaluate mitochondrial viability, and the plates were incubated again for 3 h, under the same culture conditions. The supernatant was carefully removed, and 100 µL of DMSO were added with mixing to dissolve the formazan crystals formed. The optical density was determined at 570 and 630 nm (background) (SpectraMax 340PC 384, Molecular Devices). Cell viability was expressed as the percentage of the control absorbance of the untreated cells after subtracting the appropriate background. The minimum lethal dose for 50% of the cells (MLD50) was determined as previously described.
# [3] = cited from earlier work
# [4] = Partition coefficient (log P) by HPLC method, OECD guideline
# Protocol: A Waters Alliance HPLC system equipped with a UV-Vis 2487 detector was employed. The chromatographic analysis was performed on a Symmetry C18 HPLC column (4.6 mm×250 mm, 5 µm particle size) and the mobile phase was methanol:water (70∶30), with detection at 256 nm. A flow rate of 1.0 mL/min was used and 50-µL samples were injected into the chromatographic system. The run time was approximately 15 min. The analytical curve was constructed on the basis of the retention time of the standards (purchased from Sigma Aldrich, NJ, USA) butanone, acetanilide, phenol, phenacetin, benzene, toluene, chlorobenzene and thymol, dissolved in mobile phase at a concentration of 50 µg/mL. The substances were analyzed in triplicate and the average retention time for each standard was used. The capacity factor (k) was obtained by the equation [20]: k = (tR - t0) /t0, where tR is the retention time of the test substance and t0 the dead-time. The log k values were correlated with the partition coefficients of the standards for construction of the analytical curve. […] The coefficient of determination (r^2) was also calculated to evaluate the linearity of the analytical curve.
# [5] = test system: monkey kidney cell line (BGM); assay: In vitro cytotoxicity, MTT assay, BGM cells; details: for MDL50 (Mean±SD) BGM: 24 h incubation
# Protocol: as §3
# male Wistar rats [6] = assay: Hemogram of rats treated with multiple doses; details: gavage four times a day for 4 days, PQ 2.44 mg/kg free base, Phe-Ala-PQ 9.00 mg/kg, mean (CI 95)
# Protocol: as §1, §2
# male Wistar rats [7] = assay: Histopathological evaluation of rat liver and kidney; details: multiple doses; for Liver glycogen: PAS-positive cells (total), periportal region: compared to the control group; for Histopathological analysis of the kidney: hematoxylin/eosin
# Protocol: as §1
# The liver and kidney were removed from each rat to perform the histopathological evaluation. Tissue pieces were fixed in 10% formaldehyde and embedded in paraffin. Each organ was then cut into 4-µm thick sections and subjected to standard hematoxylin/eosin staining. Hepatic glycogen staining in sections was carried out using the standard periodic acid-Schiff (PAS) reaction, followed by hematoxylin counterstaining, and the periportal and centrilobular regions of the liver were analyzed according to Thoolen et al.. Five periportal regions and five centrilobular regions were photographed in each animal, for a total of 300 photographs, and these images were adjusted using Pixelmator software (2.2.1). Nuclear hepatocyte glycogen levels were classified as: A- PAS<50% of cells, B- PAS≥50% of cells and C- PAS-negative. Additionally, liver sections were examined for the occurrence of microvesicular fatty changes, as well as the kidney sections for inflammatory infiltration, reduction of Bowman's spaces and changes in renal tubules. Statistical analysis was performed in Graphpad Prism 5.0b. Data for each organ analysis were expressed qualitatively and quantitatively, and normal distribution was verified (D'Agostin and Person). t-tests and chi-square tests were performed, and non-parametric data were evaluated using the Mann-Whitney or Kruskal-Wallis test for pair wise comparisons of groups. The significance level was set at 5%.
# [8] = test system: G6PD-deficient human red blood cells; assay: In vitro hemolysis assay
# Protocol: as §4
# [9] = previous study; cited from earlier work
# [10] = single oral dose 1.0 mg/kg (Phe-Ala-PQ: 0.19 mg/kg PQ)
# [11] = single oral dose 5.0 mg/kg (0.94 mg/kg PQ)
# [12] = single oral dose 10 mg/kg (1.9 mg/kg PQ)
# [13] = MTT, 24 h, expressed as PQ equivalents
smiles,measurement,setting,value
"COc1cc(NC(C)CCCN)c2ncccc2c1 (stereo not shown) [PQ, Primaquine]",hemolysis at 31 µg/mL,in vitro,0%
same,hemolysis at 62 µg/mL,in vitro,0%
same,hemolysis at 1000 µg/mL,in vitro,100%
same,ALP,male Wistar rats [1],125.6 U/L
same,ALT,male Wistar rats [1],91.81 ^a U/L
same,AST,male Wistar rats [1],64.99 ^a U/L
same,Creatinine,male Wistar rats [1],0.986 mg/dL and 0.986 ^a mg/dL
same,Direct bilirubin,male Wistar rats [1],0.228 mg/dL
same,GGT,male Wistar rats [1],22.88 ^a U/L
same,Total bilirubin,male Wistar rats [1],0.797 mg/dL and 0.797 ^a mg/dL
same,Urea,male Wistar rats [1],18.51 mg/dL
same,hemolysis at 125 µg/mL,In vitro hemolysis assay,0%
same,hemolysis at 250 µg/mL,In vitro hemolysis assay,50%
same,hemolysis at 500 µg/mL,In vitro hemolysis assay,87.8%
same,Mean oocyts ±SD/ in times 4 h,P. gallinaceum; [10],2.1
same,Mean oocyts ±SD/ in times 4 h,"P. gallinaceum; single oral dose 1.0 mg/kg (Phe-Ala-PQ: 0.19 mg/kg PQ), listed as PQ diphosphate",2.1±4.3
same,"Reduction in oocyst number, %",P. gallinaceum; [10],96%
same,"Sporogony inhibition, %",P. gallinaceum; [10],50%
same,MDL50 (Mean±SD) HepG2,[2]; MTT,180 µg/mL and 180 ± 24 µg/mL
same,plasma half-life,[3],ca. 6 h
same,chromatographic logP,[4],2.1
same,MDL50 (Mean±SD) BGM,[5]; MTT,263 µg/mL and 263 ± 4 µg/mL
same,Eosinophils Absolute (No. cells),male Wistar rats [6],97 (43–151) No. cells
same,Eosinophils Relative (%),male Wistar rats [6],2.10 (0.77–3.42) %
same,Hematocrit,male Wistar rats [6],46 (44–48) %
same,Leukocytes,male Wistar rats [6],4840 (3973–5706) /mm^3
same,Lymphocytes Absolute (No. cells),male Wistar rats [6],4123 (3200–5046) No. cells
same,Lymphocytes Relative (%),male Wistar rats [6],83.9 ^a (78.9–88.9) %
same,Methemoglobin,male Wistar rats [6],3.89 (3.39–4.40) %
same,Monocytes Absolute (No. cells),male Wistar rats [6],96 ^a (52–140) No. cells
same,Monocytes Relative (%),male Wistar rats [6],2.30 ^a (0.86–3.73) %
same,Neutrophils Band Absolute (No. cells),male Wistar rats [6],6 (0–19) No. cells
same,Neutrophils Band Relative (%),male Wistar rats [6],0.11 (0.00–0.36) %
same,Neutrophils Segmented Absolute (No. cells),male Wistar rats [6],516 ^a (403–629) No. cells
same,Neutrophils Segmented Relative (%),male Wistar rats [6],11.6 ^a (8.15–15.0) %
same,"Liver glycogen: positive cells (<50%), periportal region",male Wistar rats [7],decrease
same,"Liver glycogen: PAS-positive cells (total), periportal region",male Wistar rats [7],more PAS-positive cells (total) compared to the control group
same,Histopathological analysis of the kidney,male Wistar rats [7],"normal structures, with no alteration in the glomeruli and renal tubules"
"COc1cc(NC(C)CCCNC(=O)[C@H](C)NC(=O)[C@@H](N)Cc2ccccc2)c2ncccc2c1 (stereo partly drawn) [Phe-Ala-PQ, phenylalanine-alanine-primaquine]",ALP,male Wistar rats [1],93.52 U/L
same,ALT,male Wistar rats [1],"185.7 ^a, ^b U/L"
same,AST,male Wistar rats [1],"290.6^a, ^b U/L"
same,Creatinine,male Wistar rats [1],0.529 mg/dL
same,Direct bilirubin,male Wistar rats [1],0.147 mg/dL
same,GGT,male Wistar rats [1],"13.03^a, ^b U/L"
same,Total bilirubin,male Wistar rats [1],0.711 mg/dL
same,Urea,male Wistar rats [1],"5.734^a, ^b mg/dL"
same,Urea,male Wistar rats [1]; listed as prodrug,5.734 mg/dL
same,Hemolysis %,[8]; 125 µg/mL (Phe-Ala-PQ: 23.7 µg/mL PQ equivalents),0%
same,Hemolysis %,[8]; 500 µg/mL (Phe-Ala-PQ: 95 µg/mL PQ equivalents),51%
same,Hemolysis,[8]; concentrations equal to or less than 250 µg/mL (47.5 µg/mL PQ equivalents),did not cause hemolysis
same,Mean oocyts ±SD/ in times 4 h,P. gallinaceum; [10],26±36
same,Mean oocyts ±SD/ in times 4 h,P. gallinaceum; [11],6±6
same,Mean oocyts ±SD/ in times 4 h,P. gallinaceum; [12],0±0
same,"Reduction in oocyst number, %",P. gallinaceum; [10],0%
same,"Sporogony inhibition, %",P. gallinaceum; [10],0%
same,"Reduction in oocyst number, %",P. gallinaceum; [11],70%
same,"Reduction in oocyst number, %",P. gallinaceum; [12],100%
same,"Sporogony inhibition, %",P. gallinaceum; [12],100%
same,"MDL50 HepG2, PQ equivalents",[2]; [13],175 µg/mL
same,MDL50 (Mean±SD) HepG2,[2]; MTT,920 µg/mL and 920 ± 1 µg/mL
same,Toxicity to HepG2 cells compared to PQ,[2]; ratio of MDL50 values,five times less toxic
same,oral bioavailability,[9],approximately 50%
same,log P,[4]; HPLC method,0.94
same,"MDL50 BGM, PQ equivalents",[5]; [13],110 µg/mL
same,MDL50 (Mean±SD) BGM,[5]; MTT,580 µg/mL and 580 ± 86 µg/mL
same,Toxicity to BGM cells compared to PQ,[5]; ratio of MDL50 values,about two times less toxic
same,Eosinophils Absolute (No. cells),male Wistar rats [6],40 (0–152) No. cells
same,Eosinophils Relative (%),male Wistar rats [6],0.40 (0.00–1.51) %
same,Hematocrit,male Wistar rats [6],47 (45–48) %
same,Hemoglobin,male Wistar rats [6],11.76 (11.38–12.14)
same,Leukocytes,male Wistar rats [6],"8700 ^a ^, ^b (5623–11777) /mm^3"
same,Lymphocytes Absolute (No. cells),male Wistar rats [6],"7691 ^a ^, ^b (5947–9976) No. cells"
same,Lymphocytes Relative (%),male Wistar rats [6],83.0 ^a (75.8–90.2) %
same,Methemoglobin,male Wistar rats [6],3.65 (3.45–3.85) %
same,Monocytes Absolute (No. cells),male Wistar rats [6],812 ^b (0–1728) No. cells
same,Monocytes Relative (%),male Wistar rats [6],7.60 ^b (0.06–15.1) %
same,Neutrophils Band Absolute (No. cells),male Wistar rats [6],0 No. cells
same,Neutrophils Band Relative (%),male Wistar rats [6],0%
same,Neutrophils Segmented Absolute (No. cells),male Wistar rats [6],895 (163–1626) No. cells
same,Neutrophils Segmented Relative (%),male Wistar rats [6],9.00 ^a (2.55–15.4) %
same,"Liver glycogen: positive cells (<50%), periportal region",male Wistar rats [7],increase
same,"Liver glycogen: PAS-positive cells (>50%), overall analysis of the liver",male Wistar rats [7]; compared to control group,more PAS-positive cells (>50%)
same,Liver cells with fatty microvesicular changes,"male Wistar rats [7]; compared to the PQ group, listed as prodrug",fewer cells with fatty microvesicular changes; also recorded: lower percentage of cells with fatty microvesicular changes
same,"Liver glycogen: PAS-positive cells (total), periportal region",male Wistar rats [7],more PAS-positive cells (total) compared to the control group
same,Histopathological analysis of the kidney,male Wistar rats [7],"normal structures, with no alteration in the glomeruli and renal tubules"
